Data published in BigSolDB 2.1.

**Q.** Which results are given for `O=C1NC23NC(=O)NC2(N1)C(=O)NC3=O` (stereo not given)?
**A.** solubility (mole fraction) (in 1,4-dioxane, 273.15 K): 0.000149; solubility (mole fraction) (in 1,4-dioxane, 278.15 K): 0.000174; solubility (mole fraction) (in 1,4-dioxane, 283.15 K): 0.000214; solubility (mole fraction) (in 1,4-dioxane, 288.15 K): 0.000267; solubility (mole fraction) (in 1,4-dioxane, 293.15 K): 0.000333; solubility (mole fraction) (in 1,4-dioxane, 298.15 K): 0.000453; solubility (mole fraction) (in 1,4-dioxane, 303.15 K): 0.000601; solubility (mole fraction) (in 1,4-dioxane, 308.15 K): 0.000696; solubility (mole fraction) (in 1,4-dioxane, 313.15 K): 0.000856; solubility (mole fraction) (in 1,4-dioxane, 318.15 K): 0.00102; solubility (mole fraction) (in THF, 273.15 K): 0.000553; solubility (mole fraction) (in THF, 278.15 K): 0.000655; solubility (mole fraction) (in THF, 283.15 K): 0.000783; solubility (mole fraction) (in THF, 288.15 K): 0.000992; solubility (mole fraction) (in THF, 293.15 K): 0.00121; solubility (mole fraction) (in THF, 298.15 K): 0.00151; solubility (mole fraction) (in THF, 303.15 K): 0.00192; solubility (mole fraction) (in THF, 308.15 K): 0.00224; solubility (mole fraction) (in THF, 313.15 K): 0.00274; solubility (mole fraction) (in THF, 318.15 K): 0.00325; solubility (mole fraction) (in acetone, 273.15 K): 5.58e-05; solubility (mole fraction) (in acetone, 278.15 K): 6.73e-05; solubility (mole fraction) (in acetone, 283.15 K): 7.84e-05; solubility (mole fraction) (in acetone, 288.15 K): 9.4e-05; solubility (mole fraction) (in acetone, 293.15 K): 0.000114; solubility (mole fraction) (in acetone, 298.15 K): 0.000131; solubility (mole fraction) (in acetone, 303.15 K): 0.000158; solubility (mole fraction) (in acetone, 308.15 K): 0.00018; solubility (mole fraction) (in acetone, 313.15 K): 0.000202; solubility (mole fraction) (in acetone, 318.15 K): 0.000246; solubility (mole fraction) (in acetonitrile, 273.15 K): 9e-06; solubility (mole fraction) (in acetonitrile, 278.15 K): 1.15e-05; solubility (mole fraction) (in acetonitrile, 283.15 K): 1.43e-05; solubility (mole fraction) (in acetonitrile, 288.15 K): 1.72e-05; solubility (mole fraction) (in acetonitrile, 293.15 K): 2.16e-05; solubility (mole fraction) (in acetonitrile, 298.15 K): 2.75e-05; solubility (mole fraction) (in acetonitrile, 303.15 K): 3.6e-05; solubility (mole fraction) (in acetonitrile, 308.15 K): 4.4e-05; solubility (mole fraction) (in acetonitrile, 313.15 K): 5.5e-05; solubility (mole fraction) (in acetonitrile, 318.15 K): 6.79e-05; solubility (mole fraction) (in ethanol, 273.15 K): 6.15e-05; solubility (mole fraction) (in ethanol, 278.15 K): 7.48e-05; solubility (mole fraction) (in ethanol, 283.15 K): 9.23e-05; solubility (mole fraction) (in ethanol, 288.15 K): 0.000113; solubility (mole fraction) (in ethanol, 293.15 K): 0.000136; solubility (mole fraction) (in ethanol, 298.15 K): 0.00017; solubility (mole fraction) (in ethanol, 303.15 K): 0.000214; solubility (mole fraction) (in ethanol, 308.15 K): 0.000264; solubility (mole fraction) (in ethanol, 313.15 K): 0.000322; solubility (mole fraction) (in ethanol, 318.15 K): 0.000419; solubility (mole fraction) (in ethyl acetate, 273.15 K): 2.59e-05; solubility (mole fraction) (in ethyl acetate, 278.15 K): 3.38e-05; solubility (mole fraction) (in ethyl acetate, 283.15 K): 4.59e-05; solubility (mole fraction) (in ethyl acetate, 288.15 K): 6.9e-05; solubility (mole fraction) (in ethyl acetate, 293.15 K): 9.2e-05; solubility (mole fraction) (in ethyl acetate, 298.15 K): 0.000124; solubility (mole fraction) (in ethyl acetate, 303.15 K): 0.000167; solubility (mole fraction) (in ethyl acetate, 308.15 K): 0.000225; solubility (mole fraction) (in ethyl acetate, 313.15 K): 0.000322; solubility (mole fraction) (in ethyl acetate, 318.15 K): 0.000413; solubility (mole fraction) (in ethylene glycol, 273.15 K): 0.00029; solubility (mole fraction) (in ethylene glycol, 278.15 K): 0.000326; solubility (mole fraction) (in ethylene glycol, 283.15 K): 0.00036; solubility (mole fraction) (in ethylene glycol, 288.15 K): 0.000404; solubility (mole fraction) (in ethylene glycol, 293.15 K): 0.000459; solubility (mole fraction) (in ethylene glycol, 298.15 K): 0.000516; solubility (mole fraction) (in ethylene glycol, 303.15 K): 0.000587; solubility (mole fraction) (in ethylene glycol, 308.15 K): 0.000638; solubility (mole fraction) (in ethylene glycol, 313.15 K): 0.00073; solubility (mole fraction) (in ethylene glycol, 318.15 K): 0.000822; solubility (mole fraction) (in isopropanol, 273.15 K): 0.000113; solubility (mole fraction) (in isopropanol, 278.15 K): 0.000133; solubility (mole fraction) (in isopropanol, 283.15 K): 0.000162; solubility (mole fraction) (in isopropanol, 288.15 K): 0.000192; solubility (mole fraction) (in isopropanol, 293.15 K): 0.000234; solubility (mole fraction) (in isopropanol, 298.15 K): 0.000284; solubility (mole fraction) (in isopropanol, 303.15 K): 0.000364; solubility (mole fraction) (in isopropanol, 308.15 K): 0.000482; solubility (mole fraction) (in isopropanol, 313.15 K): 0.000526; solubility (mole fraction) (in isopropanol, 318.15 K): 0.000614; solubility (mole fraction) (in methanol, 273.15 K): 0.00161; solubility (mole fraction) (in methanol, 278.15 K): 0.00184; solubility (mole fraction) (in methanol, 283.15 K): 0.00243; solubility (mole fraction) (in methanol, 288.15 K): 0.00286; solubility (mole fraction) (in methanol, 293.15 K): 0.00348; solubility (mole fraction) (in methanol, 298.15 K): 0.00409; solubility (mole fraction) (in methanol, 303.15 K): 0.0049; solubility (mole fraction) (in methanol, 308.15 K): 0.00592; solubility (mole fraction) (in methanol, 313.15 K): 0.00727; solubility (mole fraction) (in methanol, 318.15 K): 0.00843; solubility (mole fraction) (in n-propanol, 273.15 K): 2.56e-05; solubility (mole fraction) (in n-propanol, 278.15 K): 3.13e-05; solubility (mole fraction) (in n-propanol, 283.15 K): 3.83e-05; solubility (mole fraction) (in n-propanol, 288.15 K): 4.65e-05; solubility (mole fraction) (in n-propanol, 293.15 K): 6.12e-05; solubility (mole fraction) (in n-propanol, 298.15 K): 8.12e-05; solubility (mole fraction) (in n-propanol, 303.15 K): 0.000103; solubility (mole fraction) (in n-propanol, 308.15 K): 0.000122; solubility (mole fraction) (in n-propanol, 313.15 K): 0.000151; solubility (mole fraction) (in n-propanol, 318.15 K): 0.00019; solubility (mole fraction) (in toluene, 273.15 K): 3.2e-06; solubility (mole fraction) (in toluene, 278.15 K): 4.3e-06; solubility (mole fraction) (in toluene, 283.15 K): 5.4e-06; solubility (mole fraction) (in toluene, 288.15 K): 6.1e-06; solubility (mole fraction) (in toluene, 293.15 K): 8.4e-06; solubility (mole fraction) (in toluene, 298.15 K): 1.05e-05; solubility (mole fraction) (in toluene, 303.15 K): 1.28e-05; solubility (mole fraction) (in toluene, 308.15 K): 1.5e-05; solubility (mole fraction) (in toluene, 313.15 K): 1.95e-05; solubility (mole fraction) (in toluene, 318.15 K): 2.6e-05; solubility (mole fraction) (in water, 273.15 K): 5.92e-05; solubility (mole fraction) (in water, 278.15 K): 7.18e-05; solubility (mole fraction) (in water, 283.15 K): 9.34e-05; solubility (mole fraction) (in water, 288.15 K): 0.000126; solubility (mole fraction) (in water, 293.15 K): 0.000159; solubility (mole fraction) (in water, 298.15 K): 0.000188; solubility (mole fraction) (in water, 303.15 K): 0.000223; solubility (mole fraction) (in water, 308.15 K): 0.00025; solubility (mole fraction) (in water, 313.15 K): 0.000313; solubility (mole fraction) (in water, 318.15 K): 0.000369
